Experimental data published in the NIST ThermoML archive (doi:10.1016/j.fluid.2008.06.006).

Assays:
[1] = xn = mol fraction of the nth substance listed; details: 303.15 K, Maximal bubble pressure
[2] = refractive index (Na D-line) (dimensionless); details: 298.15 K; 101.33 kPa; Liquid; Standard Abbe refractometry
[3] = for mass density: 298.15 K, 101.33 kPa; for mass density / vapor or sublimation pressure: Liquid; for surface tension liquid-gas: 303.15 K, Ring tensiometer

CC(C)OC(C)C [diisopropyl ether] + C1CCCCC1
[1]
Details | surface tension liquid-gas [mN/m]
x1 = 0.049 | 23.3
x1 = 0.098 | 22.7
x1 = 0.199 | 21.4
x1 = 0.301 | 20.7
x1 = 0.403 | 19.75
x1 = 0.509 | 19
x1 = 0.622 | 18.3
x1 = 0.727 | 17.8
x1 = 0.837 | 17.3
x1 = 0.936 | 16.9
x1 = 0.967 | 16.8

C1CCCCC1 [cyclohexane]
Details | mass density [kg/m3] | refractive index | surface tension liquid-gas [mN/m]
[2] | – | 1.42508 | –
[3] | 773.84 | – | 24.1

[3]
Details | vapor or sublimation pressure [kPa]
302.71 K | 16.01
312.45 K | 24.02
318.13 K | 30.03
324.4 K | 38.02
329.08 K | 45.03
332.63 K | 51.01
336.88 K | 59.01
340.25 K | 66.01
343.34 K | 73.02
346.22 K | 80.03
348.89 K | 87.02
351.4 K | 94.02
354.06 K | 101.9

CC(C)OC(C)C [diisopropyl ether]
Details | mass density [kg/m3] | refractive index | surface tension liquid-gas [mN/m]
[2] | – | 1.36644 | –
[3] | 718.34 | – | 16.7

[3], Ebulliometric method (Recirculating still)
Details | vapor or sublimation pressure [kPa]
293.25 K | 16.02
302.42 K | 24.02
307.79 K | 30.02
313.73 K | 38.02
318.15 K | 45.02
321.52 K | 51.01
325.55 K | 59.01
328.74 K | 66.01
331.67 K | 73.01
334.38 K | 80.01
336.91 K | 87.01

CC(C)OC(C)C [diisopropyl ether] + CC(C)=O
[1]
Details | surface tension liquid-gas [mN/m]
x2 = 0.046 | 16.75
x2 = 0.089 | 16.8
x2 = 0.187 | 16.95
x2 = 0.29 | 17.3
x2 = 0.39 | 17.65
x2 = 0.499 | 18.05
x2 = 0.61 | 18.6
x2 = 0.722 | 19.2
x2 = 0.829 | 20.15
x2 = 0.93 | 21.3
x2 = 0.973 | 21.94

CC(C)=O [acetone]
Details | mass density [kg/m3] | refractive index | surface tension liquid-gas [mN/m]
[2] | – | 1.35732 | –
[3] | 784.23 | – | 22.45

[3], Ebulliometric method (Recirculating still)
Details | vapor or sublimation pressure [kPa]
297.65 K | 30.06
303.23 K | 38.04
307.39 K | 45.04
310.58 K | 51.08
314.35 K | 59.07
317.33 K | 66.06
320.08 K | 73.08
322.61 K | 80.07
324.96 K | 87.09
327.17 K | 94.07
329.33 K | 101.35

CC(C)=O [acetone] + C1CCCCC1
[1]
Details | surface tension liquid-gas [mN/m]
x1 = 0.047 | 23.85
x1 = 0.091 | 23.6
x1 = 0.185 | 23.1
x1 = 0.298 | 22.7
x1 = 0.403 | 22.4
x1 = 0.513 | 22.2
x1 = 0.621 | 22.1
x1 = 0.736 | 22.05
x1 = 0.842 | 22.15
x1 = 0.943 | 22.4
